The source of these data is publication PMC8878324, “Evaluation of New Antimicrobial Agents Based on tris(1H-Indol-3-yl)methylium Salts: Activity, Toxicity, Suppression of Experimental Sepsis in Mice” (Pharmaceuticals, 2022).

Structures are written as SMILES. ≈ marks a conversion by molar mass, not a printed value.

Holding throughout (test): MIC by broth microdilution
Common to all, as to format: cell-based
(In broth dilution the organism is exposed to a series of concentrations in liquid medium.)

Test [1] has as its system Salmonella cholerasuis ATCC 14028. Conditions: ATCC14028. As to the method:
(§1) We have tested the antimicrobial activity in vitro of over 100 tris(indolyl)methane derivatives against 16 strains of Gram-positive, Gram-negative bacteria and fungi including either sensitive or drug-resistant strains from ATCC, as well as resistant clinical isolates from the culture collection of the Laboratory for Control of Hospital Infections (Sechenov University, Moscow, Russia). The minimum inhibitory concentrations (MICs) were determined by the microdilution method in a cation-adjusted Müller–Hinton medium for bacteria and in a liquid culture medium RPMI 1640 with L-glutamine without sodium bicarbonate for fungi in accordance with the requirements of the Institute of Clinical and Laboratory Standards (CLSI/NCCLS). […] As a rule, their activity against Gram-negative bacteria was usually not that high. […] For comparison, the antimicrobial activity of prototype 4 is shown. The antibacterial antibiotic levofloxacin and the antifungal amphotericin B were used as reference drugs (Table 1).
(§2) The synthesis of compounds and the scheme of their preparation and purification, as well as physicochemical characteristics, were described earlier. To evaluate the biological activity in vitro, the compounds were dissolved in DMSO at a concentration of 2.0–6.4 mg/mL, followed by preparation of two-fold dilutions in the same solvent, if necessary. The solutions were further diluted in an aqueous medium for the final concentration of DMSO not to exceed 1%, and the concentration of the compounds ranged from 64.0 to 0.13 μg/mL. To study compounds in vivo, solutions for intravenous administration in 5% glucose solution were prepared. Solutions were sterilized by filtration through 0.22 µm filters (Millipore, Burlington, MA, USA).
(§3) Strains of Gram-positive, Gram-negative bacteria and fungi including sensitive or drug-resistant strains from ATCC, as well as resistant clinical isolates from the culture collection of the Laboratory for Control of Hospital Infections (Sechenov University, Moscow, Russia), were used. Clinical isolates of Gram-positive bacteria Staphylococcus aureus 5 (MRSA), Staphylococcus aureus 10, Staphylococcus aureus 100KC (MRSA), Staphylococcus epidermidis 533, Staphylococcus haemoliticus 585 and Enterococcus faecium 569, as well as collection cultures of Gram-positive bacteria Staphylococcus aureus ATCC 700699, Staphylococcus aureus ATCC 25923, Staphylococcus aureus ATCC 3798 and collection cultures of Gram-negative bacteria Escherichia coli ATCC 25922, Klebsiella pneumoniae ATCC 13883, Proteus vulgaris ATCC 13315, Salmonella cholerasuis ATCC 14028, Pseudomonas aeruginosa ATCC 27853 and collection cultures of the yeast Candida albicans ATCC 14053 and the fungi Aspergillus niger ATCC 16404 were used. To grow the microorganisms, we used Trypticase Soy Agar (TSA, Sigma-Aldrich Co., Burlington, MA, USA). Trypticase Soy Agar, BBL, was used for cultivation of Staphylococcus spp. and E. coli. For cultivation of Enterococcus spp. and P. aeruginosa we used a ready-made dry medium Columbia Agar Base, BBL. The media were sterilized by autoclaving at 121 °C for 15 min. Yeast culture C. albicans was grown on Sabouraud agar (peptone—10 g, glucose—40 g, agar—20 g, distilled water—1 L, pH 6.0), and filamentous fungi A. niger was grown on potato–glucose agar (potatoes—200 g, glucose—20 g, agar—15 g, distilled water—1 L, pH 5.5–6.0).
(§4) To determine the antibacterial effect, a liquid Müller–Hinton medium (Becton, Dickinson and Company, Cockeysville, MD, USA) was used; to determine the effect of compounds on fungi we used RPMI 1640 medium with L-glutamine, without sodium bicarbonate, which was prepared from a dry medium (ICN Biomedicals Inc., Costa Mesa, CA, USA) by dilution in distilled water, subsequent buffering with 0.165 M of morpholinepropanesulfonic acid (MOPS, Acros Organics B.V.B.A., Morris Plains, NJ, USA) and adjusting the pH of the medium to 7.0 by adding 1 N of NaOH solution. […]

The test system of the next test is Enterococcus faecium 569. To be noted: for MIC: Enterococcus faecium 569; for activity against Enterococcus faecium 569: in words, strain resistant to cefuroxime, clindamycin, gentamycin, vancomycin and doxycycline. As to the method: as §1, §2, §3, §4
Test [2] concerns Pseudomonas aeruginosa ATCC 27853. To be noted: ATCC27853. As to the method: as §1, §2, §3, §4
For test [3], the system named is Escherichia coli ATCC 25922. To be noted: ATCC25922. As to the method:
as §1, §2, §3, §4

Test [4] concerns Proteus vulgaris ATCC 13315. To be noted: ATCC13315. As to the method:
as §1, §2, §3, §4

The test system of test [5] is Staphylococcus aureus ATCC 700699. Conditions: ATCC700699. How it is done:
as §1, §2, §3, §4

The test system of test [6] is Staphylococcus epidermidis 533. How it is done: as §1, §2, §3, §4
The next test concerns Staphylococcus aureus 5. Conditions: Staphylococcus aureus 5 (MRSA). How it is done: as §1, §2, §3, §4
Test [7] deals with Klebsiella pneumoniae ATCC 13883. Conditions: ATCC13883. As to the method:
as §1, §2, §3, §4

For test [8], the system named is Staphylococcus aureus 100KC. Conditions: Staphylococcus aureus 100KC (MRSA). As to the method:
as §1, §2, §3, §4

Test [9] concerns Staphylococcus aureus ATCC 3798. Conditions: ATCC3798. As to the method:
as §1, §2, §3, §4

Test [10] concerns Staphylococcus aureus ATCC 25923. To be noted: ATCC25923. As to the method: as §1, §2, §3, §4
Test [11] relates to Staphylococcus haemoliticus 585. Conditions: for MIC: Staphylococcus haemoliticus 585. As to the method:
as §1, §2, §3, §4

A further test relates to Staphylococcus aureus 10. As to the method:
as §1, §2, §3, §4

Broadly, the MIC is the lowest concentration that inhibits growth of the organism. Read a high MIC as weaker potency. With `OCCCCCn1cc([C+](c2cn(CCCCCO)c3ccccc23)c2cn(CCCCCO)c3ccccc23)c2ccccc21.[Cl-]` [Compound 1, tris(1-(5-Hydroxypentyl)-1H-indol-3-yl) methylium chloride], the MIC in test [1] was more than 64 µg/mL; with Enterococcus faecium 569, 8 µg/mL; in test [2] it was more than 64 µg/mL; in test [3], 8 µg/mL; in test [4], 64 µg/mL; in test [5], 2 µg/mL. Further, the MIC worked out at 1 µg/mL in [6]; 4 µg/mL against Staphylococcus aureus 5; 2 µg/mL in test [7]; 2 µg/mL in test [8]; 2 µg/mL in [9]; 2 µg/mL in test [10]. In addition, the MIC in test [11] was found to be 4 µg/mL; in the test on Staphylococcus aureus 10, 1 µg/mL. Besides, the “activity against Enterococcus faecium 569” value in the test with Enterococcus faecium 569 is reported as “reduced activity”.
Regarding `CCCn1cc([C+](c2cn(CCC)c3ccccc23)c2cn(C3=C(N)C(=O)NC3=O)c3ccccc23)c2ccccc21.[Cl-]` [Compound 2, (1-(4-Amino-2,5-dioxo-2,5-dihydro-1H-pyrrol-3-yl)-1H-indol-3-yl)bis(1-propyl-1H-indol-3-yl) methylium chloride], the MIC is more than 64 µg/mL in [1]; 8 µg/mL in the test with Enterococcus faecium 569; 32 µg/mL in [2]; more than 64 µg/mL in test [3]; 16 µg/mL in [4]; 0.5 µg/mL in [5]. The MIC in [6] is 0.5 µg/mL; against Staphylococcus aureus 5, 0.25 µg/mL; in test [7] it was more than 64 µg/mL; in test [8], 0.5 µg/mL; in test [9], 0.25 µg/mL; in test [10], 0.5 µg/mL. Moreover, the MIC in test [11] stood at 2 µg/mL; against Staphylococcus aureus 10, 0.5 µg/mL.
`CCCn1cc([C+](c2cn(CCC)c3ccccc23)c2cn(C3=C(N(C)C)C(=O)NC3=O)c3ccccc23)c2ccccc21` [Compound 3, 1-(4-Dimethylamino-2,5-dioxo-2,5-dihydro-1H-pyrrol-3-yl) -1H-indol-3-yl) bis(1-propyl-1H-indol-3-yl) methylium chloride]: the MIC is more than 64 µg/mL in [1]; more than 64 µg/mL against Enterococcus faecium 569; 16 µg/mL in test [2]; 16 µg/mL in test [3]; more than 64 µg/mL in test [4]; 0.13 µg/mL in test [5]. Also, the MIC was 0.5 µg/mL in test [6]; 0.5 µg/mL with Staphylococcus aureus 5; more than 64 µg/mL in test [7]; 0.13 µg/mL in test [8]; 0.13 µg/mL in [9]; 0.13 µg/mL in [10]. Further, the figures for the MIC (in test [11]; against Staphylococcus aureus 10) were more than 64 µg/mL and 0.25 µg/mL, respectively. Moreover, the “activity against Enterococcus faecium 569” value in the test with Enterococcus faecium 569 was “inactive”. Further, the “activity against Staphylococcus haemoliticus 585” value in test [11] (in words, clinical isolate resistant to penicillins, aminoglycosides and erythromycin) is listed as “not active”.
As for `C[C@H]1COc2c(N3CCN(C)CC3)c(F)cc3c(=O)c(C(=O)O)cn1c23` [Levofloxacin, levofloxacin, reference compound], the MIC in test [1] was 0.13 µg/mL (≈ 0.36 µM); against Enterococcus faecium 569, 1 µg/mL (≈ 2.77 µM); in test [2] it was 1 µg/mL (≈ 2.77 µM); in test [3], 0.06 µg/mL (≈ 0.166 µM); in [4], 4 µg/mL (≈ 11.1 µM); in [5], 16 µg/mL (≈ 44.3 µM). Also, the MIC in test [6] stood at 0.5 µg/mL (≈ 1.38 µM); with Staphylococcus aureus 5, 0.25 µg/mL (≈ 0.692 µM); in test [7], 0.25 µg/mL (≈ 0.692 µM); in test [8] it was 32 µg/mL (≈ 88.6 µM); in [9], 32 µg/mL (≈ 88.6 µM); in [10], 0.25 µg/mL (≈ 0.692 µM). Besides, the MIC in test [11] came out at 0.5 µg/mL (≈ 1.38 µM); with Staphylococcus aureus 10, 0.13 µg/mL (≈ 0.36 µM).
